From ChEMBL document CHEMBL5512637, “Development of Membrane-Targeting Fluorescent 2-Phenyl-1H-phenanthro[9,10-d]imidazole-Antimicrobial Peptide Mimic Conjugates against Methicillin-Resistant Staphylococcus aureus” (J Med Chem, 2024)
Values after ≈ are worked out from the molar mass of the structure shown.

Legend:
Escherichia coli = assay: Antibacterial activity against Escherichia coli ATCC 25922 incubated for 16 to 18 hrs CLSI based by microbroth dilution assay; type: functional; settings: time 16-18 hrs
Staphylococcus aureus [1] = assay: Antibacterial activity against methicillin-resistant Staphylococcus aureus clinical isolate M-6 incubated for 16 to 18 hrs CLSI based by microbroth dilution assay; type: functional; settings: time 16-18 hrs
Staphylococcus aureus [2] = assay: Antibacterial activity against methicillin-resistant Staphylococcus aureus clinical isolate M-2 incubated for 16 to 18 hrs CLSI based by microbroth dilution assay; type: functional; settings: time 16-18 hrs
Staphylococcus aureus [3] = assay: Antibacterial activity against methicillin-resistant Staphylococcus aureus clinical isolate M-9 incubated for 16 to 18 hrs CLSI based by microbroth dilution assay; type: functional; settings: time 16-18 hrs
Staphylococcus aureus [4] = assay: Antibacterial activity against methicillin-resistant Staphylococcus aureus clinical isolate M-4 incubated for 16 to 18 hrs CLSI based by microbroth dilution assay; type: functional; settings: time 16-18 hrs
Staphylococcus aureus [5] = assay: Antibacterial activity against Staphylococcus aureus ATCC 29213 incubated for 16 to 18 hrs CLSI based by microbroth dilution assay; type: functional; settings: time 16-18 hrs
Staphylococcus aureus [6] = assay: Antibacterial activity against methicillin-resistant Staphylococcus aureus clinical isolate M-7 incubated for 16 to 18 hrs CLSI based by microbroth dilution assay; type: functional; settings: time 16-18 hrs
Staphylococcus aureus [7] = assay: Antibacterial activity against methicillin-resistant Staphylococcus aureus clinical isolate M-10 incubated for 16 to 18 hrs CLSI based by microbroth dilution assay; type: functional; settings: time 16-18 hrs
Staphylococcus aureus [8] = assay: Antibacterial activity against methicillin-resistant Staphylococcus aureus clinical isolate M-8 incubated for 16 to 18 hrs CLSI based by microbroth dilution assay; type: functional; settings: time 16-18 hrs
[9] = Hemolytic activity in sheep erythrocytes incubated for 1 hr by absorbance based assay; type: toxicity, cell-based, Ovis aries, Erythrocyte
Staphylococcus aureus [10] = assay: Antibacterial activity against methicillin-resistant Staphylococcus aureus clinical isolate M-5 incubated for 16 to 18 hrs CLSI based by microbroth dilution assay; type: functional; settings: time 16-18 hrs
Staphylococcus aureus [11] = assay: Antibacterial activity against methicillin-resistant Staphylococcus aureus clinical isolate M-3 incubated for 16 to 18 hrs CLSI based by microbroth dilution assay; type: functional; settings: time 16-18 hrs
Staphylococcus aureus [12] = assay: Antibacterial activity against methicillin-resistant Staphylococcus aureus clinical isolate M-1 incubated for 16 to 18 hrs CLSI based by microbroth dilution assay; type: functional; settings: time 16-18 hrs
[13] = Selectivity index, ratio of HC50 for sheep erythrocytes to MIC for Staphylococcus aureus ATCC 29213; type: toxicity; settings: read-out: Selectivity Index

SMILES: CCCNC(=O)C[N+](C)(C)CCCn1c(-c2ccc(N(C)C)cc2)nc2c3ccccc3c3ccccc3c21.[Br-]
- MIC (Escherichia coli): > 128 µg/mL
- MIC (Staphylococcus aureus [1]): 64 µg/mL
- MIC (Staphylococcus aureus [2]): 32 µg/mL
- MIC (Staphylococcus aureus [3]): 32 µg/mL
- MIC (Staphylococcus aureus [4]): 32 µg/mL
- MIC (Staphylococcus aureus [5]): 32 µg/mL
- MIC (Staphylococcus aureus [6]): 32 µg/mL
- MIC (Staphylococcus aureus [7]): 64 µg/mL
- MIC (Staphylococcus aureus [8]): 64 µg/mL
- HC50 at 1 h [9]: > 640 µg/mL
- MIC (Staphylococcus aureus [10]): 64 µg/mL
- MIC (Staphylococcus aureus [11]): 64 µg/mL
- MIC (Staphylococcus aureus [12]): 64 µg/mL
- selectivity ratio [13]: > 20

SMILES: CCN(CC)C(=O)C[N+](C)(C)CCCCn1c(-c2ccc(N(C)C)cc2)nc2c3ccccc3c3ccccc3c21.[Br-]
- MIC (Escherichia coli): > 128 µg/mL
- MIC (Staphylococcus aureus [1]): 16 µg/mL
- MIC (Staphylococcus aureus [2]): 16 µg/mL
- MIC (Staphylococcus aureus [3]): 16 µg/mL
- MIC (Staphylococcus aureus [4]): 16 µg/mL
- MIC (Staphylococcus aureus [5]): 16 µg/mL
- MIC (Staphylococcus aureus [6]): 16 µg/mL
- MIC (Staphylococcus aureus [7]): 16 µg/mL
- MIC (Staphylococcus aureus [8]): 32 µg/mL
- HC50 at 1 h [9]: 16 µg/mL
- MIC (Staphylococcus aureus [10]): 16 µg/mL
- MIC (Staphylococcus aureus [11]): 16 µg/mL
- MIC (Staphylococcus aureus [12]): 16 µg/mL
- selectivity ratio [13]: > 640

SMILES: CC(C)CN(CC(C)C)C(=O)C[N+](C)(C)CCCCCn1c(-c2ccc(N(C)C)cc2)nc2c3ccccc3c3ccccc3c21.[Br-]
- MIC (Escherichia coli): > 128 µg/mL
- MIC (Staphylococcus aureus [1]): 1 µg/mL
- MIC (Staphylococcus aureus [2]): 1 µg/mL
- MIC (Staphylococcus aureus [3]): 1 µg/mL
- MIC (Staphylococcus aureus [4]): 1 µg/mL
- MIC (Staphylococcus aureus [5]): 1 µg/mL
- MIC (Staphylococcus aureus [6]): 1 µg/mL
- MIC (Staphylococcus aureus [7]): 2 µg/mL
- MIC (Staphylococcus aureus [8]): 1 µg/mL
- HC50 at 1 h [9]: 247 µg/mL
- MIC (Staphylococcus aureus [10]): 2 µg/mL
- MIC (Staphylococcus aureus [11]): 1 µg/mL
- MIC (Staphylococcus aureus [12]): 1 µg/mL
- selectivity ratio [13]: 247

SMILES: CCNC(=O)C[N+](C)(C)CCCn1c(-c2ccc(N(C)C)cc2)nc2c3ccccc3c3ccccc3c21.[Br-]
- MIC (Escherichia coli): > 128 µg/mL
- MIC (Staphylococcus aureus [1]): 64 µg/mL
- MIC (Staphylococcus aureus [2]): 64 µg/mL
- MIC (Staphylococcus aureus [3]): 64 µg/mL
- MIC (Staphylococcus aureus [4]): 32 µg/mL
- MIC (Staphylococcus aureus [5]): 64 µg/mL
- MIC (Staphylococcus aureus [6]): 32 µg/mL
- MIC (Staphylococcus aureus [7]): 64 µg/mL
- MIC (Staphylococcus aureus [8]): 64 µg/mL
- HC50 at 1 h [9]: > 640 µg/mL
- MIC (Staphylococcus aureus [10]): 64 µg/mL
- MIC (Staphylococcus aureus [11]): 64 µg/mL
- MIC (Staphylococcus aureus [12]): 64 µg/mL
- selectivity ratio [13]: > 10

SMILES: O=C1C(=O)c2ccccc2-c2ccccc21 [9,10-PHENANTHRENEQUINONE]
- MIC (Escherichia coli): > 64 µg/mL
- MIC (Staphylococcus aureus [1]): 4 µg/mL (≈ 19.2 µM)
- MIC (Staphylococcus aureus [2]): 4 µg/mL (≈ 19.2 µM)
- MIC (Staphylococcus aureus [3]): 8 µg/mL (≈ 38.4 µM)
- MIC (Staphylococcus aureus [4]): 4 µg/mL (≈ 19.2 µM)
- MIC (Staphylococcus aureus [5]): 4 µg/mL (≈ 19.2 µM)
- MIC (Staphylococcus aureus [6]): 4 µg/mL (≈ 19.2 µM)
- MIC (Staphylococcus aureus [7]): 2 µg/mL (≈ 9.61 µM)
- MIC (Staphylococcus aureus [8]): 2 µg/mL (≈ 9.61 µM)
- HC50 at 1 h [9]: > 320 µg/mL
- MIC (Staphylococcus aureus [10]): 4 µg/mL (≈ 19.2 µM)
- MIC (Staphylococcus aureus [11]): 4 µg/mL (≈ 19.2 µM)
- MIC (Staphylococcus aureus [12]): 2 µg/mL (≈ 9.61 µM)
- selectivity ratio [13]: > 80

SMILES: CCNC(=O)C[N+](C)(C)CCCCn1c(-c2ccc(N(C)C)cc2)nc2c3ccccc3c3ccccc3c21.[Br-]
- MIC (Escherichia coli): > 128 µg/mL
- MIC (Staphylococcus aureus [1]): 16 µg/mL
- MIC (Staphylococcus aureus [2]): 16 µg/mL
- MIC (Staphylococcus aureus [3]): 16 µg/mL
- MIC (Staphylococcus aureus [4]): 16 µg/mL
- MIC (Staphylococcus aureus [5]): 16 µg/mL
- MIC (Staphylococcus aureus [6]): 16 µg/mL
- MIC (Staphylococcus aureus [7]): 16 µg/mL
- MIC (Staphylococcus aureus [8]): 32 µg/mL
- HC50 at 1 h [9]: > 640 µg/mL
- MIC (Staphylococcus aureus [10]): 16 µg/mL
- MIC (Staphylococcus aureus [11]): 16 µg/mL
- MIC (Staphylococcus aureus [12]): 16 µg/mL
- selectivity ratio [13]: > 40

SMILES: CCCNC(=O)C[N+](C)(C)CCCCCn1c(-c2ccc(N(C)C)cc2)nc2c3ccccc3c3ccccc3c21.[Br-]
- MIC (Escherichia coli): 64 µg/mL
- MIC (Staphylococcus aureus [1]): 8 µg/mL
- MIC (Staphylococcus aureus [2]): 8 µg/mL
- MIC (Staphylococcus aureus [3]): 4 µg/mL
- MIC (Staphylococcus aureus [4]): 4 µg/mL
- MIC (Staphylococcus aureus [5]): 8 µg/mL
- MIC (Staphylococcus aureus [6]): 4 µg/mL
- MIC (Staphylococcus aureus [7]): 8 µg/mL
- MIC (Staphylococcus aureus [8]): 4 µg/mL
- HC50 at 1 h [9]: 735 µg/mL
- MIC (Staphylococcus aureus [10]): 8 µg/mL
- MIC (Staphylococcus aureus [11]): 4 µg/mL
- MIC (Staphylococcus aureus [12]): 8 µg/mL
- selectivity ratio [13]: 91.9

SMILES: CC(C)N(C(=O)C[N+](C)(C)CCCn1c(-c2ccc(N(C)C)cc2)nc2c3ccccc3c3ccccc3c21)C(C)C.[Br-]
- MIC (Escherichia coli): > 128 µg/mL
- MIC (Staphylococcus aureus [1]): 2 µg/mL
- MIC (Staphylococcus aureus [2]): 2 µg/mL
- MIC (Staphylococcus aureus [3]): 2 µg/mL
- MIC (Staphylococcus aureus [4]): 2 µg/mL
- MIC (Staphylococcus aureus [5]): 2 µg/mL
- MIC (Staphylococcus aureus [6]): 2 µg/mL
- MIC (Staphylococcus aureus [7]): 2 µg/mL
- MIC (Staphylococcus aureus [8]): 4 µg/mL
- HC50 at 1 h [9]: 68.5 µg/mL
- MIC (Staphylococcus aureus [10]): 2 µg/mL
- MIC (Staphylococcus aureus [11]): 2 µg/mL
- MIC (Staphylococcus aureus [12]): 2 µg/mL
- selectivity ratio [13]: 8.6
